Results published in patent publication US6737383B1, “Herbicidal oxadiazolidines” (priority 1999, dated 2004).

Tests used:
corn = experiment: Test B pre/postemergence corn; format: in vivo, Zea mays
Outline: (§1)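 Test chemicals in a non-phytotoxic solvent mixture with surfactant were sprayed preemergence onto planted seeds and postemergence onto plants 2 to 18 cm tall (1- to 4-leaf stage). After twelve to sixteen days in a greenhouse, injury was visually rated against untreated controls from 0 (no effect) to 10 (complete control).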

crabgrass = experiment: Test B pre/postemergence crabgrass; format: in vivo, Digitaria sanguinalis
Outline: as §1

duck salad = experiment: Test B flood test duck salad; format: in vivo, Heteranthera limosa
Outline: (§2)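 Flood test on plants grown to the 2-leaf stage; treated plants kept in greenhouse twelve to sixteen days, then visually rated against controls on a 0 (no effect) to 10 (complete control) scale.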

giant foxtail = experiment: Test B pre/postemergence giant foxtail; format: in vivo, Setaria faberii
Outline: as §1

wheat = experiment: Test B pre/postemergence wheat; format: in vivo, Triticum aestivum
Outline: as §1

velvetleaf = experiment: Test B pre/postemergence velvetleaf; format: in vivo, Abutilon theophrasti
Outline: as §1

morningglory = experiment: Test B pre/postemergence morningglory; format: in vivo, Ipomoea hederacea
Outline: as §1

purple nutsedge = experiment: Test B pre/postemergence purple nutsedge; format: in vivo, Cyperus rotundus
Outline: as §1

cocklebur = experiment: Test B pre/postemergence cocklebur; format: in vivo, Xanthium strumarium
Outline: as §1

pigweed = experiment: Test B pre/postemergence pigweed; format: in vivo, Amaranthus retroflexus
Outline: as §1

rape = experiment: Test B pre/postemergence rape; format: in vivo, Brassica napus
Outline: as §1

sugar beet = experiment: Test B pre/postemergence sugar beet; format: in vivo, Beta vulgaris
Outline: as §1

blackgrass = experiment: Test B pre/postemergence blackgrass; format: in vivo, Alopecurus myosuroides
Outline: as §1

soybean = experiment: Test B pre/postemergence soybean; format: in vivo, Glycine max
Outline: as §1

rice = experiment: Test B flood test rice; format: in vivo, Oryza sativa
Outline: as §2

smallflower flatsedge = experiment: Test B flood test smallflower flatsedge; format: in vivo, Cyperus difformis
Outline: as §2

[1] = Postemergence, Rate 62 g/ha, scale 0 to 10, 0 is no effect, 10 is complete control
[2] = Postemergence, Rate 125 g/ha, scale of 0 to 10 where 0 is no effect and 10 is complete control
[3] = Postemergence, Rate 250 g/ha, scale of 0 to 10, 0 is no effect, 10 is complete control
[4] = Postemergence, Rate 500 g/ha, scale of 0 to 10 where 0 is no effect and 10 is complete control
[5] = Preemergence, Rate 62 g/ha, scale 0 to 10 (0 no effect, 10 complete control)
[6] = Preemergence, Rate 125 g/ha, scale of 0 to 10 where 0 is no effect and 10 is complete control
[7] = Preemergence, Rate 500 g/ha, scale of 0 to 10 where 0 is no effect and 10 is complete control
[8] = Rate 62 g/ha, flood test species, Pre-emergence, visual evaluation after twelve to sixteen days
[9] = Rate 125 g/ha, under heading Pre-emergence, flood test species, visual evaluation after twelve to sixteen days
[10] = Rate 250 g/ha, Pre-emergence (flood test species), scale 0 to 10, 0 is no effect, 10 is complete control
[11] = Rate 500 g/ha, Pre-emergence section of Table B, 0 to 10 scale (0 no effect, 10 complete control)

Structure (SMILES): CC(C)N(C(=O)n1oc(=O)n(CC2=NOCCC2)c1=O)c1ccc(F)cc1F [Compound 602]
- Plant response rating, Corn (corn; [1]): 0
- Plant response rating, Corn (corn; [2]): 0
- Corn plant response rating (corn; [3]): 0
- Plant response rating, Corn (corn; [4]): 0
- Corn plant response rating (corn; [5]): 0
- Corn plant response rating (corn; [6]): 0
- Corn plant response rating (0 to 10 scale) (corn; Preemergence, Rate 250 g/ha): 0
- Plant response rating, Corn (corn; [7]): 2
- Plant response rating, Crabgrass (crabgrass; [1]): 2
- Plant response rating, Crabgrass (crabgrass; [2]): 4
- Crabgrass plant response rating (crabgrass; [3]): 4
- Plant response rating, Crabgrass (crabgrass; [4]): 9
- Crabgrass plant response rating (crabgrass; [5]): 7
- Crabgrass plant response rating (crabgrass; [6]): 8
- Plant response rating, Crabgrass (crabgrass; [7]): 10
- Plant response rating, Ducksalad (0 to 10 scale, 0 is no effect, 10 is complete control) (duck salad; [8]): 0
- Ducksalad plant response rating (0 to 10 scale, 0 is no effect, 10 is complete control) (duck salad; [9]): 0
- Ducksalad plant response rating (duck salad; [10]): 0
- Ducksalad plant response rating (duck salad; [11]): 0
- Plant response rating, Giant foxtail (giant foxtail; [1]): 1
- Plant response rating, Giant foxtail (giant foxtail; [2]): 8
- Giant foxtail plant response rating (giant foxtail; [3]): 9
- Plant response rating, Giant foxtail (giant foxtail; [4]): 9
- Giant foxtail plant response rating (giant foxtail; [5]): 9
- Giant foxtail plant response rating (giant foxtail; [6]): 9
- Plant response rating, Giant foxtail (giant foxtail; [7]): 10
- Plant response rating, Wheat (wheat; [1]): 0
- Plant response rating, Wheat (wheat; [2]): 0
- Wheat plant response rating (wheat; [3]): 0
- Plant response rating, Wheat (wheat; [4]): 0
- Wheat plant response rating (wheat; [5]): 0
- Wheat plant response rating (wheat; [6]): 0
- Plant response rating, Wheat (wheat; [7]): 0
- Plant response rating, Velvetleaf (velvetleaf; [1]): 0
- Plant response rating, Velvetleaf (velvetleaf; [2]): 0
- Velvetleaf plant response rating (velvetleaf; [3]): 0
- Plant response rating, Velvetleaf (velvetleaf; [4]): 0
- Velvetleaf plant response rating (velvetleaf; [5]): 0
- Velvetleaf plant response rating (velvetleaf; [6]): 6
- Plant response rating, Velvetleaf (velvetleaf; [7]): 6
- Plant response rating, Morningglory (morningglory; [1]): 0
- Plant response rating, Morningglory (morningglory; [2]): 1
- Morningglory plant response rating (morningglory; [3]): 2
- Plant response rating, Morningglory (morningglory; [4]): 3
- Morningglory plant response rating (morningglory; [5]): 0
- Morningglory plant response rating (morningglory; [6]): 0
- Plant response rating, Morningglory (morningglory; [7]): 0
- Plant response rating, Nutsedge (purple nutsedge; [1]): 0
- Plant response rating, Nutsedge (purple nutsedge; [2]): 0
- Nutsedge plant response rating (purple nutsedge; [3]): 0
- Plant response rating, Nutsedge (purple nutsedge; [4]): 0
- Nutsedge plant response rating (purple nutsedge; [5]): 0
- Nutsedge plant response rating (purple nutsedge; [6]): 0
- Plant response rating, Nutsedge (purple nutsedge; [7]): 0
- Plant response rating, Cocklebur (cocklebur; [1]): 0
- Plant response rating, Cocklebur (cocklebur; [2]): 0
- Cocklebur plant response rating (cocklebur; [3]): 0
- Plant response rating, Cocklebur (cocklebur; [4]): 0
- Cocklebur plant response rating (cocklebur; [5]): 0
- Cocklebur plant response rating (cocklebur; [6]): 0
- Cocklebur plant response rating (0 to 10 scale) (cocklebur; Preemergence, Rate 250 g/ha): 0
- Plant response rating, Cocklebur (cocklebur; [7]): 0
- Plant response rating, Redroot pigweed (pigweed; [1]): 2
- Plant response rating, Redroot pigweed (pigweed; [2]): 2
- Redroot pigweed plant response rating (pigweed; [3]): 3
- Plant response rating, Redroot pigweed (pigweed; [4]): 6
- Redroot pigweed plant response rating (pigweed; [5]): 2
- Redroot pigweed plant response rating (pigweed; [6]): 7
- Plant response rating, Redroot pigweed (pigweed; [7]): 8
- Plant response rating, Rape (rape; [1]): 0
- Plant response rating, Rape (rape; [2]): 0
- Rape plant response rating (rape; [3]): 0
- Plant response rating, Rape (rape; [4]): 0
- Rape plant response rating (rape; [5]): 0
- Rape plant response rating (rape; [6]): 0
- Plant response rating, Rape (rape; [7]): 3
- Plant response rating, Sugarbeets (sugar beet; [1]): 0
- Plant response rating, Sugarbeets (sugar beet; [2]): 0
- Sugarbeets plant response rating (sugar beet; [3]): 0
- Plant response rating, Sugarbeets (sugar beet; [4]): 0
- Sugarbeets plant response rating (sugar beet; [5]): 0
- Sugarbeets plant response rating (sugar beet; [6]): 2
- Plant response rating, Sugarbeets (sugar beet; [7]): 5
- Plant response rating, Blackgrass (blackgrass; [1]): 4
- Plant response rating, Blackgrass (blackgrass; [2]): 6
- Blackgrass plant response rating (blackgrass; [3]): 8
- Plant response rating, Blackgrass (blackgrass; [4]): 9
- Blackgrass plant response rating (blackgrass; [5]): 0
- Blackgrass plant response rating (blackgrass; [6]): 4
- Blackgrass plant response rating (0 to 10 scale) (blackgrass; Preemergence, Rate 250 g/ha): 6
- Blackgrass plant response rating (blackgrass; [7]): 9
- Plant response rating, Soybean (soybean; [1]): 3
- Plant response rating, Soybean (soybean; [2]): 3
- Soybean plant response rating (soybean; [3]): 5
- Plant response rating, Soybean (soybean; [4]): 7
- Soybean plant response rating (soybean; [6]): 0
- Plant response rating, Soybean (soybean; [7]): 0
- Plant response rating, Rice (0 to 10 scale, 0 is no effect, 10 is complete control) (rice; [8]): 0
- Rice plant response rating (0 to 10 scale, 0 is no effect, 10 is complete control) (rice; [9]): 0
- Rice plant response rating (rice; [10]): 0
- Rice plant response rating (rice; [11]): 0
- Plant response rating, S. Flatsedge (0 to 10 scale, 0 is no effect, 10 is complete control) (smallflower flatsedge; [8]): 0
- S. Flatsedge plant response rating (0 to 10 scale, 0 is no effect, 10 is complete control) (smallflower flatsedge; [9]): 0
- S. Flatsedge plant response rating (smallflower flatsedge; [10]): 0
- S. Flatsedge plant response rating (smallflower flatsedge; [11]): 0
